The assay has as its target MAPK14 (human) (UniProt Q16539). Put plainly: Inhibition of LPS Stimulated TNF Production by U937 Cells. The following applies: for inhibition: concentration not given here.

The values that follow come from the Kinase Knowledgebase extract (Sharma et al. 2016).

Some results are limits rather than exact numbers.

Chain of MAPK14 (human) (Q16539 whole entry, looked up): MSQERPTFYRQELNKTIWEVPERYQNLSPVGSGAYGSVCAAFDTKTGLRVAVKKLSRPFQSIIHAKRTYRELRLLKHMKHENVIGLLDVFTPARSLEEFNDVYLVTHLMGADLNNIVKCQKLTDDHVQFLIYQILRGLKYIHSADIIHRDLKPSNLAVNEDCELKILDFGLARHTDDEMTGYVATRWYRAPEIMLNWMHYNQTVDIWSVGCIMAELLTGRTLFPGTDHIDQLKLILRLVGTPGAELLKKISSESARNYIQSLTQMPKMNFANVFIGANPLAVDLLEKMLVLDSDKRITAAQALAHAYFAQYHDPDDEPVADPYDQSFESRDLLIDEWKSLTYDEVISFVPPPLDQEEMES

A word on the inhibition: it is the percentage by which the read-out fell short of the control. Read a low inhibition as a response near the control. On to `C[C@@H](NS(=O)(=O)c1ccccc1Br)c1[nH]nc(-c2ccc(F)cc2)c1-c1ccncc1`, for which the inhibition was found to be 80%. Broadly, the IC50 is the midpoint of a concentration-inhibition curve. For `Cc1cnccc1-c1cn(C)nc1-c1ccc(F)cc1`, the IC50 worked out at 757 nM. In turn, `COc1ccc(OC)c(S(=O)(=O)N[C@@H](C)c2[nH]nc(-c3ccc(F)cc3)c2-c2ccncc2)c1` gave an inhibition of 40%. On the same count and under the same terms, in the case of `O=C(CCc1ccccc1)NCc1[nH]nc(-c2ccc(F)cc2)c1-c1ccncc1` it was 21%; in that of `O=C(NCc1[nH]nc(-c2ccc(F)cc2)c1-c1ccncc1)c1cccc(Cl)c1Cl`, 33%. For `CNC(=O)N[C@H](Cc1ccccc1)c1[nH]nc(-c2ccc(F)cc2)c1-c1ccncc1`, the IC50 is above 1000 nM. Consider `C[C@H](NC(=O)c1c(F)cc(F)cc1F)c1[nH]nc(-c2ccc(F)cc2)c1-c1ccncc1`, for which the inhibition was determined as 68%.

On to `C[C@@H](NC(=O)c1c(F)cc(F)cc1F)c1[nH]nc(-c2ccc(F)cc2)c1-c1ccncc1`, for which the inhibition was 75%. The same measure, in the same setting: in the case of `Cc1ccc(F)cc1S(=O)(=O)N[C@@H](C)c1[nH]nc(-c2ccc(F)cc2)c1-c1ccncc1` it was 72%; in that of `C[C@@H](NC(=O)c1ccccc1)c1[nH]nc(-c2ccc(F)cc2)c1-c1ccncc1`, 19%; in that of `O=S(=O)(NCCc1[nH]nc(-c2ccc(F)cc2)c1-c1ccncc1)c1cc(Cl)c(Cl)s1`, 28%. Take `C[C@@H](NS(=O)(=O)c1ccccc1C(F)(F)F)c1[nH]nc(-c2ccc(F)cc2)c1-c1ccncc1`: the inhibition came out at 70%. Same read-out and setting: in the case of `C[C@H](NC(=O)c1ccc(C(F)(F)F)cc1F)c1[nH]nc(-c2ccc(F)cc2)c1-c1ccncc1` it was 33%. The molecule `CCN(CC)CCn1cc(-c2ccncc2)c(-c2ccc(F)cc2)n1` returned an IC50 of 509 nM.

`OCCn1cc(-c2ccnc(CCc3ccc(F)cc3)c2)c(-c2ccc(F)cc2)n1`: the IC50 worked out at 583 nM. On to `O=S(=O)(NCc1[nH]nc(-c2ccc(F)cc2)c1-c1ccncc1)c1ccccc1Cl`, for which the inhibition was found to be 70%. Molecule `C[C@@H](NC(=O)c1ccc(I)cc1)c1[nH]nc(-c2ccc(F)cc2)c1-c1ccncc1` displayed an inhibition of 25%. With `O=S(=O)(NCc1[nH]nc(-c2ccc(F)cc2)c1-c1ccncc1)c1c(Cl)cccc1Cl`, the inhibition is 43%. Same read-out and setting: in the case of `Cc1c(C)c(S(=O)(=O)N[C@H](C)c2[nH]nc(-c3ccc(F)cc3)c2-c2ccncc2)c(C)c2c1OC(C)(C)CC2` it was 68%; in that of `CCCCCCCCS(=O)(=O)NCc1[nH]nc(-c2ccc(F)cc2)c1-c1ccncc1`, 12%; in that of `COc1ccc(OC)c(S(=O)(=O)N[C@H](C)c2[nH]nc(-c3ccc(F)cc3)c2-c2ccncc2)c1`, 81%. The same measure, in the same setting: in the case of `COc1cccc(C(=O)N[C@H](Cc2ccccc2)c2[nH]nc(-c3ccc(F)cc3)c2-c2ccncc2)c1` it was 38%; in that of `O=S(=O)(c1c(F)cccc1F)N1CCC(c2[nH]nc(-c3ccc(F)cc3)c2-c2ccncc2)CC1`, 8%. As to `Cc1ccc(-c2n[nH]c(C)c2-c2ccncc2)cc1`, the IC50 came to 274 nM.

Consider `CC(=O)OC(C)(C)C(=O)N[C@@H](C)c1[nH]nc(-c2ccc(F)cc2)c1-c1ccncc1`, for which the IC50 worked out at 870 nM. In the case of `C[C@@H](NC(=O)c1cc(F)cc(C(F)(F)F)c1)c1[nH]nc(-c2ccc(F)cc2)c1-c1ccncc1`, the inhibition was 52%. Same read-out and setting: in the case of `Cc1c(-c2ccncc2)c(-c2ccc(F)cc2)nn1CC(=O)NCCCN1CCN(C)CC1` it was 30%. In turn, `Cc1cnccc1-c1c[nH]nc1-c1ccc(F)cc1` returned an IC50 of 1210 nM.

`CCCOC(=O)NCc1[nH]nc(-c2ccc(F)cc2)c1-c1ccncc1` came in with an inhibition of 65%. On the same count and under the same terms, then `CC(C)OC(=O)NCc1[nH]nc(-c2ccc(F)cc2)c1-c1ccncc1`, with 54%.

`CNC(=O)CC[C@H](NS(=O)(=O)Cc1ccccc1)c1[nH]nc(-c2ccc(F)cc2)c1-c1ccncc1`: the IC50 is above 1000 nM. As for `C[C@@H](NS(=O)(=O)c1ccc(CNC(=O)c2ccccc2)s1)c1[nH]nc(-c2ccc(F)cc2)c1-c1ccncc1`, the inhibition was 88%. The same measure, in the same setting: in the case of `O=C(Cc1cccc2ccccc12)NCc1[nH]nc(-c2ccc(F)cc2)c1-c1ccncc1` it was 21%. `O=C(NCCCc1[nH]nc(-c2ccc(F)cc2)c1-c1ccncc1)NCCc1c[nH]cn1` returned an IC50 above 1000 nM. Consider `C[C@H](NC(=O)c1cccc(Br)c1)c1[nH]nc(-c2ccc(F)cc2)c1-c1ccncc1`, for which the inhibition stood at 21%. In the case of `Cn1cnc(S(=O)(=O)NCc2[nH]nc(-c3ccc(F)cc3)c2-c2ccncc2)c1`, the inhibition was 24%. As to `CS(=O)(=O)c1ccc(CNC(=O)NCCCc2[nH]nc(-c3ccc(F)cc3)c2-c2ccncc2)cc1`, the IC50 is above 1000 nM. In the case of `O=C(NCc1[nH]nc(-c2ccc(F)cc2)c1-c1ccncc1)c1cc(F)cc(C(F)(F)F)c1`, the inhibition came to 26%.

Take `CCS(=O)(=O)NCc1[nH]nc(-c2ccc(F)cc2)c1-c1ccncc1`: the IC50 stood at 5000 nM. That is a single-digit micromolar value. Molecule `O=C(NCc1[nH]nc(-c2ccc(F)cc2)c1-c1ccncc1)C1CC1` registered an IC50 of 3330 nM. Molecule `C[C@H](NC(=O)c1ccc(Cl)cc1)c1[nH]nc(-c2ccc(F)cc2)c1-c1ccncc1` had an inhibition of 32%. In the case of `CCNC(=O)N[C@@H](CCC(=O)NC)c1[nH]nc(-c2ccc(F)cc2)c1-c1ccncc1`, the IC50 was above 1000 nM. `C[C@H](NS(=O)(=O)c1ccc(-c2ccccn2)s1)c1[nH]nc(-c2ccc(F)cc2)c1-c1ccncc1` came in with an inhibition of 92%. Molecule `O=C(NCCc1[nH]nc(-c2ccc(F)cc2)c1-c1ccncc1)c1cc(Cl)cc(Cl)c1` returned an IC50 above 1000 nM. In the case of `C[C@H](NS(=O)(=O)c1cn(C)cn1)c1[nH]nc(-c2ccc(F)cc2)c1-c1ccncc1`, the inhibition is 74%. For `CC(C)c1ccc(S(=O)(=O)N[C@H](C)c2[nH]nc(-c3ccc(F)cc3)c2-c2ccncc2)cc1`, the inhibition is 80%. Same read-out and setting: in the case of `O=S(=O)(c1ccc(Cl)cc1)N1CCC(c2[nH]nc(-c3ccc(F)cc3)c2-c2ccncc2)CC1` it was 25%; in that of `Cc1ccccc1C(=O)NCc1[nH]nc(-c2ccc(F)cc2)c1-c1ccncc1`, 11%. As for `CN(C)CCNc1cc(-c2c[nH]nc2-c2ccc(F)cc2)ccn1`, the IC50 was found to be 259 nM. Regarding `CCc1ccc(S(=O)(=O)N[C@H](C)c2[nH]nc(-c3ccc(F)cc3)c2-c2ccncc2)cc1`, the inhibition came out at 92%. Same read-out and setting: in the case of `O=S(=O)(NCCc1[nH]nc(-c2ccc(F)cc2)c1-c1ccncc1)c1cc(Cl)cc(Cl)c1O` it was 50%; in that of `C[C@H](NS(=O)(=O)c1cccc(Br)c1)c1[nH]nc(-c2ccc(F)cc2)c1-c1ccncc1`, 79%.

Regarding `CC(C)C(=O)N[C@@H](C)c1[nH]nc(-c2ccc(F)cc2)c1-c1ccncc1`, the IC50 stood at 1010 nM. That is a single-digit micromolar value.

Consider `C[C@H](NS(=O)(=O)c1c(Cl)cccc1Cl)c1[nH]nc(-c2ccc(F)cc2)c1-c1ccncc1`, for which the inhibition amounted to 77%. Consider `O=C(NCc1[nH]nc(-c2ccc(F)cc2)c1-c1ccncc1)c1c(Cl)cc(Cl)cc1Cl`, for which the inhibition turned out to be 100%. In turn, `CC(C)OC(=O)N[C@@H](C)c1[nH]nc(-c2ccc(F)cc2)c1-c1ccncc1` came in with an inhibition of 53%. In turn, `COc1ccc(C)cc1S(=O)(=O)N[C@@H](C)c1[nH]nc(-c2ccc(F)cc2)c1-c1ccncc1` yielded an inhibition of 76%. Molecule `O=C(NCc1[nH]nc(-c2ccc(F)cc2)c1-c1ccncc1)c1c(F)ccc(F)c1F` gave an inhibition of 36%.

As for `COc1ccc(Cl)cc1S(=O)(=O)N[C@@H](C)c1[nH]nc(-c2ccc(F)cc2)c1-c1ccncc1`, the inhibition was found to be 76%. The same measure, in the same setting: then `CCOC(=O)c1cccc(NC(=O)NCc2[nH]nc(-c3ccc(F)cc3)c2-c2ccncc2)c1`, with 14%. `Cn1nc(-c2ccc(F)cc2)c(-c2ccncc2)c1Br` yielded an IC50 of 1400 nM. With `C[C@H](NC(=O)NCc1ccccc1)c1[nH]nc(-c2ccc(F)cc2)c1-c1ccncc1`, the IC50 came out at 840 nM. `CCCNC(=O)NCc1[nH]nc(-c2ccc(F)cc2)c1-c1ccncc1` displayed an inhibition of 39%. With `C[C@H](NC(=O)c1cccc(F)c1)c1[nH]nc(-c2ccc(F)cc2)c1-c1ccncc1`, the inhibition came to 21%.

`O=S(=O)(NCc1[nH]nc(-c2ccc(F)cc2)c1-c1ccncc1)c1ccc(-c2ccon2)s1` displayed an inhibition of 89%. On to `C[C@@H](NS(=O)(=O)c1ccc(Cl)c(Cl)c1)c1[nH]nc(-c2ccc(F)cc2)c1-c1ccncc1`, for which the inhibition came to 98%.

For `COc1ccc(S(=O)(=O)NCc2[nH]nc(-c3ccc(F)cc3)c2-c2ccncc2)c([N+](=O)[O-])c1`, the inhibition was determined as 10%. For the molecule `O=C(NCCc1[nH]nc(-c2ccc(F)cc2)c1-c1ccncc1)c1cc(F)cc(F)c1`, the inhibition worked out at 29%.

Molecule `O=C(N[C@H](Cc1ccccc1)c1[nH]nc(-c2ccc(F)cc2)c1-c1ccncc1)C1CC1` gave a half-maximal inhibitory concentration (IC50) above 1000 nM.

With `CC(C)=CC(=O)N[C@H](C)c1[nH]nc(-c2ccc(F)cc2)c1-c1ccncc1`, the inhibition was 28%. For the molecule `C[C@@H](NS(=O)(=O)c1ccc(F)c(Cl)c1)c1[nH]nc(-c2ccc(F)cc2)c1-c1ccncc1`, the inhibition was determined as 98%. Still for that read-out and setting: then `O=S(=O)(NCc1[nH]nc(-c2ccc(F)cc2)c1-c1ccncc1)c1cccc(C(F)(F)F)c1`, with 75%; and `CNC(=O)CC[C@H](NC(=O)C(C)C)c1[nH]nc(-c2ccc(F)cc2)c1-c1ccncc1`, with 25%; and `CNC(=O)CC[C@H](NS(=O)(=O)c1ccccc1F)c1[nH]nc(-c2ccc(F)cc2)c1-c1ccncc1`, with 1%. On to `CNC(=O)CC[C@H](NC(=O)C1CC1)c1[nH]nc(-c2ccc(F)cc2)c1-c1ccncc1`, for which the inhibition turned out to be 28%. Consider `O=S(=O)(NCc1[nH]nc(-c2ccc(F)cc2)c1-c1ccncc1)c1ccccc1Br`, for which the inhibition amounted to 68%. Still for that read-out and setting: then `O=C(NCCCc1[nH]nc(-c2ccc(F)cc2)c1-c1ccncc1)NCC1CC1`, with 36%. Molecule `O=S(=O)(NCc1[nH]nc(-c2ccc(F)cc2)c1-c1ccncc1)c1cccc2ccccc12` registered an IC50 above 1000 nM. With `C[C@H](NS(=O)(=O)c1ccc(-c2ccccc2)cc1)c1[nH]nc(-c2ccc(F)cc2)c1-c1ccncc1`, the inhibition is 91%.

In the case of `CCOC(=O)CCCC(=O)NCc1[nH]nc(-c2ccc(F)cc2)c1-c1ccncc1`, the inhibition stood at 22%. The same measure, in the same setting: in the case of `Cc1ccccc1C(=O)N[C@@H](C)c1[nH]nc(-c2ccc(F)cc2)c1-c1ccncc1` it was 34%.
